Experimental data published in patent US10899732B2, “Substituted benzamides useful as sodium channel blockers” (GENENTECH, INC., priority 2015, dated 2021).
Counter-ions that a name gives are not always drawn.

Tests used:
[1] = biological target: T1, hNav1.7 (Homo sapiens, UniProt Q15858); experiment: Tritiated sulfonamide competitive binding to membranes from cells expressing hNav1.7 and the β1 subunit (LBA); settings: competition with 100 pM [3H]compound, 18 h, room temperature; read-out: Nav1.7 (LBA)
T1 construct: expressed in transfected cells
T1 sequence (Q15858 1-1977 isoform Q15858-3): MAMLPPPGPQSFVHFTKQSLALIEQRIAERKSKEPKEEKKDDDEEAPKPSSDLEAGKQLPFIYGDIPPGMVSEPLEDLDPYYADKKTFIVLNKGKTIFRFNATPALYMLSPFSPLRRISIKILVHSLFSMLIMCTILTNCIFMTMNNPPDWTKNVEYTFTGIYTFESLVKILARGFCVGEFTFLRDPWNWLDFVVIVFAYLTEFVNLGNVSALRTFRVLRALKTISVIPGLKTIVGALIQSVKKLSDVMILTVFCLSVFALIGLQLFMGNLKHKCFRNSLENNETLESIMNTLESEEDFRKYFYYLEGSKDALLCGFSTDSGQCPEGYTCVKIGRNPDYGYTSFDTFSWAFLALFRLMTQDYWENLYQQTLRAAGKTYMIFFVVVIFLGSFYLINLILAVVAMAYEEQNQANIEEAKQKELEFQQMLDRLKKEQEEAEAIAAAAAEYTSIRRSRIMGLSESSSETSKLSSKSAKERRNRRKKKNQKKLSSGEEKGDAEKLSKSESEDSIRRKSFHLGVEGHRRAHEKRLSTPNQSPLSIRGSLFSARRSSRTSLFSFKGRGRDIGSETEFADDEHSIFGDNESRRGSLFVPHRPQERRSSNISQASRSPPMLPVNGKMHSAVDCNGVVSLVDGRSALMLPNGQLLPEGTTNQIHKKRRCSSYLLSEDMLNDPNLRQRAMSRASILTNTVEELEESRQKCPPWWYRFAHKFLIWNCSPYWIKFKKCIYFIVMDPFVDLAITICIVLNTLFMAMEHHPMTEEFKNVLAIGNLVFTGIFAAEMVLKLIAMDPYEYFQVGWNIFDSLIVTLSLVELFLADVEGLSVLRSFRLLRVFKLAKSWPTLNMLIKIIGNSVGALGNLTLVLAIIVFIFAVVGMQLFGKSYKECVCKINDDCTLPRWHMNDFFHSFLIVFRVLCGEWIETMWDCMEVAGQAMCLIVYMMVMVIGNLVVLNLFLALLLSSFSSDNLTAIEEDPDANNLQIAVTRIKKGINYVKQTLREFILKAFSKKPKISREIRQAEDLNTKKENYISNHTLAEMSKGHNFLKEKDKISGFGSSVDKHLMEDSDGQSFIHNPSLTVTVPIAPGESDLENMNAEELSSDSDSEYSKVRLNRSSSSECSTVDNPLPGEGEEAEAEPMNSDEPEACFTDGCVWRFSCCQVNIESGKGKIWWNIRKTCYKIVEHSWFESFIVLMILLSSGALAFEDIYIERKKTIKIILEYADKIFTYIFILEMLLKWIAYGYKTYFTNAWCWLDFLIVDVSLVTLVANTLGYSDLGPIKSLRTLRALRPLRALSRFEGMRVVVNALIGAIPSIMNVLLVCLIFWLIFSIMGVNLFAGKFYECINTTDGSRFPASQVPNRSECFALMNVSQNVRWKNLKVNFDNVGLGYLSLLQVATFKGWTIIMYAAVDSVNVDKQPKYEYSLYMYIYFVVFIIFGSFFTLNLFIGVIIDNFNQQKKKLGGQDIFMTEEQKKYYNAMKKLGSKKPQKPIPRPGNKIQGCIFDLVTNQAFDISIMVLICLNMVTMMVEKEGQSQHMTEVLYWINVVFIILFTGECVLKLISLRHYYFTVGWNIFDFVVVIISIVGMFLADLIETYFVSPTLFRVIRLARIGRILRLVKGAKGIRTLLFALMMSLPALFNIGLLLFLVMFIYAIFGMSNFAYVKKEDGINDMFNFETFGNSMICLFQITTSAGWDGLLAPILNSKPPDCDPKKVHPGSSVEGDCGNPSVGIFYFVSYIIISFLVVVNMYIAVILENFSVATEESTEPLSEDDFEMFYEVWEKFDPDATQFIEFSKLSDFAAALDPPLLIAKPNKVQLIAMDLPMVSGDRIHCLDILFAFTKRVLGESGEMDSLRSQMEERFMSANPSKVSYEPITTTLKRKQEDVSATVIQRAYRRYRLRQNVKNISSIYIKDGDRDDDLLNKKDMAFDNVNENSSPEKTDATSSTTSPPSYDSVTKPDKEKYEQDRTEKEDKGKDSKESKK
T1 sequence (Q07699 19-218 partner): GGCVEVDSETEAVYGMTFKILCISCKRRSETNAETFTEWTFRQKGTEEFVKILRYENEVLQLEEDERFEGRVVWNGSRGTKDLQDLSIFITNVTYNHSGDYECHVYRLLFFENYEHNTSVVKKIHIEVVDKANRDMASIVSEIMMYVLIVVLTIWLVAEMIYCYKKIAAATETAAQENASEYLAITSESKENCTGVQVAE
Procedure: Tritiated Sulfonamide Binding to Membranes Isolated from Cells that Heterologously Express hNav1.7 and the β1 Subunit
Preparation of membranes containing recombinantly expressed sodium channels: Frozen recombinant cell pellets were thawed on ice and diluted to 4 times the cell pellet weight with ice cold 50 mM Tris HCl, pH 7.4 buffer. The cell suspensions were homogenized on ice using a motorized glass dounce homogenizer. Homogenates were further diluted 8.4 times with ice cold 50 mM Tris HCl, pH 7.4 buffer and then centrifuged at 200×g at 4° C. for 15 min. The supernatants were collected and centrifuged at 10000×g at 4° C. for 50 min. The pellets were then re-suspended in 100 mM NaCl, 20 mM Tris HCl, pH 7.4 buffer containing 1% v/v protease inhibitors (Calbiochem) and re-homogenized on ice. The homogenized membranes were then processed through a syringe equipped with a 26 gauge needle. Protein concentrations were determined by Bradford Assay and the membranes were stored at −80° C.
Saturation experiments. A competitive NaV1.7 inhibitor having a methyl group was tritiated. Three tritiums were incorporated in place of methyl hydrogens to generate [^3H]compound. Binding of this radioligand was preformed in 5 mL borosilicate glass test tubes at room temperature. Binding was initiated by adding membranes to increasing concentrations of [^3H]compound in 100 mM NaCl, 20 mM Tris HCl, pH 7.4 buffer containing 0.01% w/v bovine serum albumin (BSA) for 18 h. Non-specific binding was determined in the presence of 1 μM unlabelled compound. After 18 h, the reactants were filtered through GF/C glass fiber filters presoaked in 0.5% w/v polyethylene imine. Filters were washed with 15 mL ice cold 100 mM NaCl, 20 mM Tris HCl, pH 7.4 buffer containing 0.25% BSA to separate bound from free ligand. [^3H]compound bound to filters was quantified by liquid scintillation counting.
Binding reactions were performed in 96-well polypropylene plates at room temperature for 18 h. In 360 μL, membranes were incubated with 100 pM [^3H]compound and increasing concentrations of Test Compound. Non-specific binding was defined in the presence of 1 μM unlabelled compound. Reactions were transferred and filtered through 96-well glass fiber/C filter plates presoaked with 0.5% polyethylene imine. The filtered reactions were washed 5 times with 200 μL ice cold buffer containing 0.25% BSA. Bound radioactivity was determined by liquid scintillation counting.
Data Analysis: For saturation experiments, non-specific binding was subtracted from total binding to provide specific binding and these values were recalculated in terms of pmol ligand bound per mg protein. Saturation curves were constructed and dissociation constants were calculated using the single site ligand binding model: Beq=(Bmax*X)/(X+Kd), where Beq is the amount of ligand bound at equilibrium, Bmax is the maximum receptor density, Kd is the dissociation constant for the ligand, and X is the free ligand concentration. For competition studies percent inhibition was determined and IC50 values were calculated using a 4 parameter logistic model (% inhibition=(A+((B−A)/(1+((x/C)^D)))) using XLfit, where A and B are the maximal and minimum inhibition respectively, C is the IC50 concentration and D is the (Hill) slope.

[2] = biological target: T2, NaV1.7 (Homo sapiens, UniProt Q15858); experiment: Patch voltage clamp electrophysiology assay (EP), NaV1.7 in HEK-293 cells; assay type: cell-based; settings: HEK-293, β1 coexpressed, held at -60 mV (inactivated state)
T2 construct: expression vector containing the full-length cDNA coding for the desired human sodium channel α-subunit; expressed in transfected cells; host or cells: HEK-293
T2 sequence (Q15858 1-1977 isoform Q15858-3): as the sequence (Q15858 1-1977 isoform Q15858-3) above
T2 sequence (Q07699 19-218 partner): as the sequence (Q07699 19-218 partner) above
Text: (§1) Electrophysiological Assay (EP) (In Vitro Assay)
(§2) Patch voltage clamp electrophysiology allows for the direct measurement and quantification of block of voltage-gated sodium channels (NaV's), and allows the determination of the time- and voltage-dependence of block which has been interpreted as differential binding to the resting, open, and inactivated states of the sodium channel (Hille, B., Journal of General Physiology (1977), 69: 497-515).
(§3) The following patch voltage clamp electrophysiology studies were performed on representative compounds of the invention using human embryonic kidney cells (HEK), permanently transfected with an expression vector containing the full-length cDNA coding for the desired human sodium channel α-subunit, grown in culture media containing 10% FBS, 1% PSG, and 0.5 mg/mL G418 at 37° C. with 5% CO2. […] NaV1.7 and NaV1.5 cDNAs (NM_002977 and AC137587; SCN5A, respectively) were stably expressed in HEK-293 cells. The β1 subunit was coexpressed in both the NaV1.7 and NaV1.5 cell lines.
(§4) Sodium currents were measured using the patch clamp technique in the whole-cell configuration using either a PatchXpress automated voltage clamp or manually using an Axopatch 200B (Axon Instruments) or Model 2400 (A-M systems) amplifier. The manual voltage clamp protocol was as follows: Borosilicate glass micropipettes were fire-polished to a tip diameter yielding a resistance of 2-4 Mohms in the working solutions. The pipette was filled with a solution comprised of: 5 mM NaCl, 10 mM CsCl, 120 mM CsF, 0.1 mM CaCl2, 2 mM MgCl2, 10 mM HEPES, 10 mM EGTA; and adjusted to pH 7.2 with CsOH. The external solution had the following composition: 140 mM NaCl, 5 mM KCl, 2 mM CaCl2, 1 mM MgCl2, 10 mM HEPES; and adjusted to pH 7.4 with NaOH. In some studies, the external sodium was reduced by equimolar replacement with choline. Osmolarity in the CsF internal and NaCl external solutions was adjusted to 300 mOsm/kg and 310 mOsm/kg with glucose, respectively. All recordings were performed at ambient temperature in a bath chamber with a volume of 150 μL. Control sodium currents were measured in 0.5% DMSO. Controls and representative compounds of the invention were applied to the recording chamber through a 4-pinch or 8-pinch valve bath perfusion system manufactured by ALA Scientific Instruments.
(§5) Currents were recorded at 40 kHz sampling frequency, filtered at […], and stored using a Digidata-1322A analogue/digital interface with the pClamp software (Axon Instruments). Series resistance compensation was applied (60-80%). […] All statistics in this study are given as mean±SD.
(§6) The membrane potential was maintained at a voltage where inactivation of the channel is complete (which was −60 mV for both NaV1.7 and NaV1.5). The voltage is then stepped back to a very negative (Vhold=[…]) voltage for 20 ms and then a test pulse is applied to quantify the compound block. The 20 ms brief repolarization was long enough for compound-free channels to completely recover from fast inactivation, but the compound-bound channels recovered more slowly such that negligible recovery could occur during this interval. The percent decrease in sodium current following wash-on of compound was taken as the percent block of sodium channels.

[3] = biological target: T3, NaV1.5 (Homo sapiens, UniProt Q14524); experiment: Patch voltage clamp electrophysiology assay (EP), NaV1.5 in HEK-293 cells; assay type: cell-based; settings: HEK-293, β1 coexpressed, held at -60 mV (inactivated state)
T3 construct: expression vector containing the full-length cDNA coding for the desired human sodium channel α-subunit; expressed in transfected cells; host or cells: HEK-293
T3 sequence (Q14524 whole entry): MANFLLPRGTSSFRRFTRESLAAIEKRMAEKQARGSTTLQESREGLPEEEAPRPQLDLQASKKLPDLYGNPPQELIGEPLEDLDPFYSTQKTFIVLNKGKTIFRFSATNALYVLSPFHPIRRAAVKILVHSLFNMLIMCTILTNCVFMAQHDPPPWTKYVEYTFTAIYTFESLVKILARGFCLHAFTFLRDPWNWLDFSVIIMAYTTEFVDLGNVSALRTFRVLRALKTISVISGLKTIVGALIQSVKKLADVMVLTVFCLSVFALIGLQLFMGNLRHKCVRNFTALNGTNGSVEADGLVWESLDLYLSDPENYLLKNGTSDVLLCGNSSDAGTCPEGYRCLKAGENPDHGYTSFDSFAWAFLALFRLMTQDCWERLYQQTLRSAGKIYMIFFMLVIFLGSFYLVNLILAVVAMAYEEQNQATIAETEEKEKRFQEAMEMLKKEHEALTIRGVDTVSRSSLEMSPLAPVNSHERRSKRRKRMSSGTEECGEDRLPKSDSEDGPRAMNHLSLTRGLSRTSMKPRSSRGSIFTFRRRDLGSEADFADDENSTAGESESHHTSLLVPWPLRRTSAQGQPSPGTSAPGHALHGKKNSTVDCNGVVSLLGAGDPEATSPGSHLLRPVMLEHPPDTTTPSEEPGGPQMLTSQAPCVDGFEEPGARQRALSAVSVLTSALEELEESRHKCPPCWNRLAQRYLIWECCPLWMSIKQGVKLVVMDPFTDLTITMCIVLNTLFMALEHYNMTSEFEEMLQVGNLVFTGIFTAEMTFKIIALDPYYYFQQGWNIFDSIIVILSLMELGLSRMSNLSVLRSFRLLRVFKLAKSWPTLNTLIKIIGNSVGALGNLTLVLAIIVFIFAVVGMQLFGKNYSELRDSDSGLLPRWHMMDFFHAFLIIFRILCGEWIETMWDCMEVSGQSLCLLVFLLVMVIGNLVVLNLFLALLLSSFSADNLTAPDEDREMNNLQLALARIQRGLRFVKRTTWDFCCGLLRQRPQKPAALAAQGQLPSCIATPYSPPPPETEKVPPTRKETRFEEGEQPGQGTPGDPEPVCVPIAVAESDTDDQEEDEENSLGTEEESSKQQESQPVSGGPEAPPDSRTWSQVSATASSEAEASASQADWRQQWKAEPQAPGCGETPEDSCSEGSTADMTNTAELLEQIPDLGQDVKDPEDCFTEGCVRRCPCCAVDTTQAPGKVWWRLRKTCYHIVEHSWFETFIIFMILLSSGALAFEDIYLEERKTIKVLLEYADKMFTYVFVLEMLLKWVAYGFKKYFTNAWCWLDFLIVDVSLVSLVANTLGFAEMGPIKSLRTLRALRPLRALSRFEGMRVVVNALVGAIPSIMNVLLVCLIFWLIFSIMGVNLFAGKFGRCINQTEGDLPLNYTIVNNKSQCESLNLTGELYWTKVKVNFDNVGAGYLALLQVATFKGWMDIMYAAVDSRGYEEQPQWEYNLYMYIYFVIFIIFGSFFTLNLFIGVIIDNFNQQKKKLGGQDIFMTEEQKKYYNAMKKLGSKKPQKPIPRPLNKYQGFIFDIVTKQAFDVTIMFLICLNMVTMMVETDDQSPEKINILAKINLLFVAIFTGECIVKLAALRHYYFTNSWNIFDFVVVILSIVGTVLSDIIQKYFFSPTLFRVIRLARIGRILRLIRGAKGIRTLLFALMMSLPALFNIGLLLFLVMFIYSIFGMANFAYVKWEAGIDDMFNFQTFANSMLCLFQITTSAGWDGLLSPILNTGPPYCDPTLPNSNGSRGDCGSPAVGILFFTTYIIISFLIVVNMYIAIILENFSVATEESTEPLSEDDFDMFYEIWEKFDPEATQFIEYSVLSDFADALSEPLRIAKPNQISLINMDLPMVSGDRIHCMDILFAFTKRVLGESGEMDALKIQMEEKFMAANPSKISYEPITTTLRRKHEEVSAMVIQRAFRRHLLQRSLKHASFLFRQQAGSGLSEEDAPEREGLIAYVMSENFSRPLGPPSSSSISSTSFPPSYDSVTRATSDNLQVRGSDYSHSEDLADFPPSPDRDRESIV
Text: as §1, §2, §3, §4, §5, §6

Row | SMILES | IC50 [1] | IC50 [2] | IC50 ([3]; human, pH 7.4) | IC50 [3]
1 | Cc1nn([C@@H]2CCN(C(=O)c3cc(Cl)cc(Cl)c3)C2)c2cc(F)c(C(=O)NS(=O)(=O)C3CC3)cc12 [Example 21, (R)-N-(cyclopropylsulfonyl)-1-(1-(3,5-dichlorobenzoyl)pyrrolidin-3-yl)-6-fluoro-3-methyl-1H-indazole-5-carboxamide] | 1500 nM | 4000 nM | ≥ 30 µM | –
2 | Cc1nn([C@@H]2CCN([C@H](C)c3cc(Cl)cc(OC(F)(F)F)c3)C2)c2cc(F)c(C(=O)NS(=O)(=O)C3CC3)cc12 [Example 22, 1-((R)-1-((R)-1-(3-chloro-5-(trifluoromethoxy)phenyl)ethyl)pyrrolidin-3-yl)-N-(cyclopropylsulfonyl)-6-fluoro-3-methyl-1H-indazole-5-carboxamide, trifluoroacetic acid salt] | 20 nM | 110 nM | – | 4.8 µM
3 | Cc1nn(CC2CN(C(c3ccccc3)c3ccccc3)C2)c2cc(F)c(C(=O)NS(C)(=O)=O)cc12 [Example 23, 1-((1-benzhydrylazetidin-3-yl)methyl)-6-fluoro-3-methyl-N-(methylsulfonyl)-1H-indazole-5-carboxamide] | 280 nM | 550 nM | ≥ 30 µM | –
4 | Cc1nn(C2CN(C(c3ccccc3)c3ccccc3)C2)c2cc(F)c(C(=O)NS(C)(=O)=O)cc12 [Example 24, 1-(1-benzhydrylazetidin-3-yl)-6-fluoro-3-methyl-N-(methylsulfonyl)-1H-indazole-5-carboxamide] | 48 nM | 87 nM | – | 8.6 µM
5 | Cc1nn(C2CCC(C(C)C)CC2)c2cc(F)c(C(=O)NS(C)(=O)=O)cc12 (stereo not drawn) [Example 33, 6-fluoro-1-(4-isopropylcyclohexyl)-3-methyl-N-(methylsulfonyl)-1H-indazole-5-carboxamide] | 20 nM | 79 nM | – | 20 µM
6 | Cc1nn(C23CC4CC(CC(C4)C2)C3)c2cc(F)c(C(=O)NS(=O)(=O)N3CCC3)cc12 [Example 35, 1-((3s,5s,7s)-adamantan-1-yl)-N-(azetidin-1-ylsulfonyl)-6-fluoro-3-methyl-1H-indazole-5-carboxamide] | 180 nM | 1000 nM | ≥ 30 µM | –
7 | Cc1nn(C23CC4CC(CC(C4)C2)C3)c2cc(F)c(C(=O)NS(C)(=O)=O)cc12 [Example 36, 1-((3s,5s,7s)-adamantan-1-yl)-6-fluoro-3-methyl-N-(methylsulfonyl)-1H-indazole-5-carboxamide] | 370 nM | 3100 nM | ≥ 30 µM | –
8 | Cc1nn(C2CCCCC2)c2cc(F)c(C(=O)NS(=O)(=O)N3CCC3)cc12 [Example 37, N-(azetidin-1-ylsulfonyl)-1-cyclohexyl-6-fluoro-3-methyl-1H-indazole-5-carboxamide] | 490 nM | 3600 nM | ≥ 30 µM | –
9 | Cc1nn(C2CCCCC2)c2cc(F)c(C(=O)NS(C)(=O)=O)cc12 [Example 38, 1-cyclohexyl-6-fluoro-3-methyl-N-(methylsulfonyl)-1H-indazole-5-carboxamide] | 1000 nM | 11000 nM | ≥ 30 µM | –
10 | Cc1nn(-c2cnc(OCC(C)C)c(Cl)c2)c2cc(F)c(C(=O)NS(C)(=O)=O)cc12 [Example 39, 1-(5-chloro-6-isobutbxypyridin-3-yl)-6-fluoro-3-methyl-N-(methylsulfonyl)-1H-indazole-5-carboxamide] | 8 nM | 39 nM | ≥ 30 µM | –
11 | Cc1nn(CC23CC4CC(CC(C4)C2)C3)c2cc(F)c(C(=O)N[S@TB2](C)(=O)=O)cc12 [Example 40, 1-(((1s,3s)-adamantan-1-yl)methyl)-6-fluoro-3-methyl-N-(methylsulfonyl)-1H-indazole-5-carboxamide] | 410 nM | 1200 nM | ≥ 30 µM | –
12 | Cc1nn(CC23CC4CC(CC(C4)C2)C3)c2cc(F)c(C(=O)N[S@TB3](=O)(=O)N3CCC3)cc12 [Example 41, 1-(((1s,3s)-adamantan-1-yl)methyl)-N-(azetidin-1-ylsulfonyl)-6-fluoro-3-methyl-1H-indazole-5-carboxamide] | 300 nM | 3400 nM | ≥ 30 µM | –
13 | Cc1nn(-c2cnc(OCC(C)C)c(Cl)c2)c2cc(F)c(C(=O)NS(=O)(=O)N3CCC3)cc12 [Example 42, N-(azetidin-1-ylsulfonyl)-1-(5-chloro-6-isobutoxypyridin-3-yl)-6-fluoro-3-methyl-1H-indazole-5-carboxamide] | 7 nM | 71 nM | ≥ 30 µM | –
